# Source: article PMC3290551, “Core Site-Moiety Maps Reveal Inhibitors and Binding Mechanisms of Orthologous Proteins by Screening Compound Libraries” (PLoS ONE, 2012)
# “And” between values parts separate entries of the source, which are not always exact repeats. Identical values can stand only once. Like-named read-outs stand apart in the source and are kept apart here.
# Tests used:
# Format in all cases: biochemical
# [1] = biological target: T1, H. pylori shikimate kinase (HpSK) (Helicobacter pylori, UniProt P56073); assay: Shikimate kinase coupled enzyme inhibition assay (HpSK); conditions: for Inhibitory effect against shikimate kinase (in words): HpSK; for IC50: 1.6 mM shikimic acid, 2.5 mM ATP, 25°C, pH 7.5
# T1 construct: made in house; host or cells: Escherichia coli (stated for the mutants, which followed the wild-type procedure)
# [2] = biological target: T2, M. tuberculosis shikimate kinase (MtSK) (Mycobacterium tuberculosis, UniProt P9WPY3); assay: Shikimate kinase coupled enzyme inhibition assay (MtSK); conditions: for Inhibitory effect against shikimate kinase (in words): MtSK; for IC50: SK species: Mt, 1.6 mM shikimic acid, 2.5 mM ATP, 25°C, pH 7.5
# T2 construct: His6 (N); made in house; host or cells: E. coli BL-21 (DE3)
# [3] = biological target: T1, H. pylori shikimate kinase (HpSK); assay: Analysis of inhibitor kinetics / inhibitor modality (HpSK); conditions: for Inhibitor modality with respect to ATP / Inhibitor modality with respect to shikimate: HpSK; for Ki: SK species: Hp
# Procedure: (§1) Shikimate kinase activity was determined by coupling the release of ADP from the SK-catalyzed reaction to the oxidation of NADH using pyruvate kinase (EC 2.7.1.40) and lactate dehydrogenase (EC 1.1.1.27) as coupling enzymes. Shikimate-dependent oxidation of NADH was measured by monitoring the decrease in A340 (ε = 6,200 M^−1 cm^−1). The assay was carried out at 25°C in a mixture of 100 mM Tris-HCl buffer, pH 7.5, 50 mM KCl, 5 mM MgCl2, 1.6 mM shikimic acid, 2.5 mM ATP, 1 mM phosphoenolpyruvate (PEP), 0.1 mM NADH, 2.5 units of pyruvate kinase per ml, and 2.7 units of lactate dehydrogenase per ml. All assays were conducted in a 96-well microplate and analyzed with a spectrophotometer (FLUOstar OPTIMA, BMG LABTECH).
# (§2) After the preliminary screening, the inhibitor modality was determined by measuring the effects of inhibitor concentrations on the enzymatic activity as a function of substrate concentration. In the inhibition experiment in which the ATP concentration was fixed at 2.5 mM, shikimate was a varied substrate (0.06, 0.12, 0.24, 0.48, and 0.96 mM) when the concentration of inhibitor was varied from 0 to 50 µM. In parallel, in the inhibition experiment in which the shikimate concentration was fixed at 1.6 mM, ATP was a varied substrate (0.06, 0.12, 0.24, 0.48, and 0.96 mM) when the concentration of inhibitor was varied from 0 to 50 µM. A nonlinear least square-fitting algorithm was applied to the absorbance data to determine the kinetic mechanism data.
# [4] = biological target: T2, M. tuberculosis shikimate kinase (MtSK); assay: Analysis of inhibitor kinetics / inhibitor modality (MtSK); conditions: for Inhibitor modality with respect to ATP / Inhibitor modality with respect to shikimate: MtSK; for Ki: SK species: Mt
# Procedure: as §1, §2
# [5] = ATP varied, shikimate fixed at 1.6 mM, read-out: αKi, ATP
# [6] = shikimate varied, ATP fixed at 2.5 mM, read-out: αKi, SKM
# T2 sequence (P9WPY3 whole entry): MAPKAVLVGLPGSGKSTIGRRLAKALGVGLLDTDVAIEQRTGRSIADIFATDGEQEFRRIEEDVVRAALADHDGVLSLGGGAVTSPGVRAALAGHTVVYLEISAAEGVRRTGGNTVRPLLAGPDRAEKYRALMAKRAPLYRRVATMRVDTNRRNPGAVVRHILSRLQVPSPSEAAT
# T1 sequence (P56073 whole entry): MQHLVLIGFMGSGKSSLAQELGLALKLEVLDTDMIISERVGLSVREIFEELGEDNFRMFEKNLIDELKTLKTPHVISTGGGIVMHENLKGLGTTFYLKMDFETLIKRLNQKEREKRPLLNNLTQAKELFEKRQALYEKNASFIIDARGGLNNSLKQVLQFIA
compound,measurement,setting,value
"O=C1Nc2ccc(I)cc2/C1=C/c1cc(Br)c(O)c(Br)c1 [GW5074, reference compound]",Inhibitory effect against shikimate kinase (in words),[1],showed inhibitory effects
same,IC50,"[1]; IC50, SK species: Hp",31.4 µM
same,Inhibitory effect against shikimate kinase (in words),[2],showed inhibitory effects
same,IC50,[2],29.6 µM
O=C(Nc1ccc(C(=O)Nc2ccc3c(O)cc(S(=O)(=O)O)cc3c2)cc1)c1ccccc1 [NSC37215],Inhibitory effect against shikimate kinase (in words),[1],lost the inhibitory
same,IC50,"[1]; IC50, SK species: Hp",> 100 µM
same,Inhibitory effect against shikimate kinase (in words),[2],lost the inhibitory
same,IC50,[2],> 100 µM
O=C(Nc1ccc2c(O)cc(S(=O)(=O)O)cc2c1)Nc1ccc2c(O)cc(S(=O)(=O)O)cc2c1 [NSC45174],IC50,"[1]; IC50, SK species: Hp",≤ 10 µM and 7.8 µM
same,IC50,[2],≤ 10 µM and 2.8 µM
O=S(=O)(O)c1cc(O)c2c(O)c(N=Nc3cccc4ccccc34)c(S(=O)(=O)O)cc2c1 [NSC45208],Inhibitory effect against shikimate kinase (in words),[1],lost the inhibitory
same,IC50,"[1]; IC50, SK species: Hp",> 100 µM
same,Inhibitory effect against shikimate kinase (in words),[2],lost the inhibitory
same,IC50,[2],> 100 µM
Nc1ccc2c(O)c(/N=N/c3ccc([N+](=O)[O-])cc3)c(S(=O)(=O)O)cc2c1 [NSC45547],IC50,[1]; SK species: Hp,≤ 10 µM and 7.8 µM
O=C(Nc1ccc2c(O)c(/N=N/c3ccc4c(O)cc(S(=O)(=O)O)cc4c3)c(S(=O)(=O)O)cc2c1)c1ccccc1 [NSC45609],IC50,[1]; SK species: Hp,≤ 10 µM and 7 µM
Cc1cc(N=Nc2ccc(N=Nc3ccc(N=Nc4ccc(O)c(C(=O)O)c4)cc3)c(S(=O)(=O)O)c2C)c(N)cc1N [NSC45611],IC50,"[1]; IC50, SK species: Hp",≤ 10 µM and 4.8 µM
same,IC50,[2],≤ 10 µM and 1.5 µM
same,Inhibitor modality with respect to ATP,[3],competitive inhibitors of ATP
same,Inhibitor modality with respect to shikimate,[3],competed with shikimate
same,Ki,"[3]; αKi, ATP, ATP varied, shikimate fixed at 1.6 mM",1.1 µM
same,Ki,"[3]; αKi, SKM, shikimate varied, ATP fixed at 2.5 mM",1.7 µM
same,Inhibitor modality with respect to ATP,[4],competitive inhibitors of ATP
same,Inhibitor modality with respect to shikimate,[4],competed with shikimate
same,Ki,[4]; [5],0.3 µM
same,Ki,[4]; [6],0.7 µM
Nc1ccc2c(O)c(N=Nc3ccc4c(O)cc(S(=O)(=O)O)cc4c3)c(S(=O)(=O)O)cc2c1 [NSC162535],Inhibitor modality with respect to ATP,[3],competitive inhibitors of ATP
same,Inhibitor modality with respect to shikimate,[3],competed with shikimate
same,Ki,"[3]; read-out: αKi, ATP, ATP varied, shikimate fixed at 1.6 mM",1.9 µM
same,Ki,"[3]; read-out: αKi, SKM, shikimate varied, ATP fixed at 2.5 mM",1.8 µM
same,Inhibitor modality with respect to ATP,[4],competitive inhibitors of ATP
same,Inhibitor modality with respect to shikimate,[4],competed with shikimate
same,Ki,[4]; [5],0.2 µM
same,Ki,[4]; [6],0.6 µM
O=C(NNC(=O)C1c2ccccc2Oc2ccccc21)c1cccc(F)c1 [RH00016],IC50,"[1]; IC50, SK species: Hp",40.2 µM
same,IC50,[2],< 100 µM
O=C(NNC(=O)C1c2ccccc2Oc2ccccc21)c1cccc([N+](=O)[O-])c1 [RH00037],IC50,"[1]; IC50, SK species: Hp",23.8 µM
same,IC50,[2],< 100 µM
N=C(NO)c1ccc(Oc2cc(Cl)cc(Cl)c2)c([N+](=O)[O-])c1 [SPB01099],IC50,[1]; SK species: Hp,< 100 µM
same,IC50,[2],< 100 µM
